According to patent US10041905B2, “Electrochemically active agents for pH modulation in biological buffers” (Robert Bosch GmbH, priority 2015, dated 2018):

What was measured:
[1] = Electrochemical generation of H+ or OH- ions at indium tin oxide electrode surfaces (electro-oxidation / electro-reduction, cyclic voltammetry); format: physicochemical
Text: Electrode material used: The electrode material was indium tin oxide. This is a semiconducting electrode surface with very large potential window in an aqueous solution.
Oxidation of ascorbic acid at the electrode surfaces produced H^+ ions and changed the electrode surface pH to a more acidic state: AH2→A+2H^++2e^−, where AH2 is ascorbic acid ([…]) (as shown in FIG. 5). The electrode potential at which it oxidizes was less than 0.5V for Indium tin oxide material vs Ag/AgCl reference electrode (as shown in FIG. 7). This potential was less than the voltages needed for the oxygen evolution reaction in aqueous solution. The ascorbic acid also acted as a sacrificial species to prevent electrochemical degradation of the surface chemistry.
Reduction of benzoquinone (C6H4O2) into Hydroquinone (C6H6O2) can produce OH^− ions at −0.1V: BQ+2e^−+2H2O →HQ+2OH^− This reduction reaction increased the pH at the electrode interface.

[2] = molecular target: T1, Green Fluorescent Protein (GFP) (Aequorea victoria, UniProt P42212); assay: Fluorescence intensity of GFP after incubation with benzoquinones (protein stability); format: biochemical; settings: 0.5 mM benzoquinone, phosphate buffered saline, 30 min
Experimental: Para-benzoquinones and ortho-benzoquinones (compounds 2, 4, 6, and 9 in FIG. 31) are susceptible to nucleophilic attack at the double bond of the ring (positions 2, 3, 5 and 6 in structure 2 of FIG. 31, positions 3, 4, 5 and 6 in structure 4 of FIG. 31, and positions 2 and 3 in structure 6 of FIG. 31). Introducing substituents at some or all of those positions can mitigate the problem of nucleophilic attack. […] Fluorescence intensity of Green Fluorescent Protein (GFP) was measured after incubation with three different benzoquinones in phosphate buffered saline for 30 min (concentration of benzoquinones was 0.5 mM). The difference in fluorescence intensity indicates the varied effect that the different substitutions in benzoquinones have on the stability of GFP. Fluorescence intensity of GFP is indicative of its structural integrity. Losses in fluorescence intensity usually indicate loss of its tertiary structure (protein denaturation) (Yin D. X., Zhu L., Schimke R. T. Anal. Biochem. 1996, 235:195-201).

[3] = molecular target: T1, Green Fluorescent Protein (GFP); settings: literature (Loomis et al.; U.S. Pat. No. 6,753,312); cited from earlier work

O=C1O[C@H]([C@@H](O)CO)C(O)=C1O [ascorbic acid]
potential of current increase indicating start of oxidation ([1]; cyclic voltammetry, ITO electrodes): around 0.25 V | electrode potential at which it oxidizes ([1]; indium tin oxide vs Ag/AgCl reference electrode): less than 0.5 V

O=C1C=CC(=O)C=C1 [unsubstituted benzoquinone, 1,4-benzoquinone]
potential of reduction producing OH- ions ([1]; reduction of benzoquinone into hydroquinone): −0.1 V | loss in GFP fluorescence intensity after incubation [2]: 25% | Michael addition reaction with amino groups of proteins [3]: undergoes Michael addition reaction
